From PubChem BioAssay AID1259407 (Chemical Carcinogenesis Research Information System (CCRIS), 2018)
Calls of active or inactive are those of the source. How the calls were made is not given here.

Test system: CCRIS mutagenicity, Ames/micronucleus/aberration tests
Experiment: CCRIS mutagenicity studies
[1] = Test System: AMES SALMONELLA TYPHIMURIUM, Strain/Indicator: TA98, Metabolic Activation: NONE, Method: STANDARD PLATE
[2] = Test System: AMES SALMONELLA TYPHIMURIUM, Strain/Indicator: TA98, Metabolic Activation: RAT, LIVER, S-9, AROCLOR 1254, Method: STANDARD PLATE
[3] = Test System: AMES SALMONELLA TYPHIMURIUM, Strain/Indicator: TA100, Metabolic Activation: NONE, Method: STANDARD PLATE
[4] = Test System: AMES SALMONELLA TYPHIMURIUM, Strain/Indicator: TA100, Metabolic Activation: RAT, LIVER, S-9, AROCLOR 1254, Method: STANDARD PLATE
[5] = Test System: AMES SALMONELLA TYPHIMURIUM, Strain/Indicator: TA1535, Metabolic Activation: NONE, Method: STANDARD PLATE
[6] = Test System: AMES SALMONELLA TYPHIMURIUM, Strain/Indicator: TA1535, Metabolic Activation: RAT, LIVER, S-9, AROCLOR 1254, Method: STANDARD PLATE
[7] = Test System: AMES SALMONELLA TYPHIMURIUM, Strain/Indicator: TA1537, Metabolic Activation: NONE, Method: STANDARD PLATE
[8] = Test System: AMES SALMONELLA TYPHIMURIUM, Strain/Indicator: TA1537, Metabolic Activation: RAT, LIVER, S-9, AROCLOR 1254, Method: STANDARD PLATE
[9] = Test System: AMES SALMONELLA TYPHIMURIUM, Strain/Indicator: TA1538, Metabolic Activation: NONE, Method: STANDARD PLATE
[10] = Test System: AMES SALMONELLA TYPHIMURIUM, Strain/Indicator: TA1538, Metabolic Activation: RAT, LIVER, S-9, AROCLOR 1254, Method: STANDARD PLATE
[11] = Test System: AMES SALMONELLA TYPHIMURIUM, Strain/Indicator: TA100, Metabolic Activation: NONE, Method: PREINCUBATION

Question: Which mutagenic call [1] does the source give for O=c1c2ccccc2[nH]c2occc12 here?
Answer: inactive; negative

Question: What about the mutagenic call (Test System: AMES SALMONELLA TYPHIMURIUM, Strain/Indicator: TA98, Metabolic Activation: RAT LIVER S-9, PHENOBARTITAL, Method: STANDARD PLATE) of the same molecule?
Answer: inactive; negative

Question: What does the source list for CCN(CC)c1cc(NC(C)=O)c(N=Nc2c(Br)cc([N+](=O)[O-])cc2[N+](=O)[O-])cc1OC?
Answer: mutagenic call [1]: active; positive; mutagenic call [2]: active; positive; mutagenic call (Test System: AMES SALMONELLA TYPHIMURIUM, Strain/Indicator: TA98DNP6, Metabolic Activation: NONE, Method: STANDARD PLATE): inactive; negative; mutagenic call (Test System: AMES SALMONELLA TYPHIMURIUM, Strain/Indicator: TA98DNP6, Metabolic Activation: RAT, LIVER, S-9, AROCLOR 1254, Method: STANDARD PLATE): active; positive; mutagenic call (Test System: AMES SALMONELLA TYPHIMURIUM, Strain/Indicator: TA98NR, Metabolic Activation: NONE, Method: STANDARD PLATE): inactive; negative; mutagenic call (Test System: AMES SALMONELLA TYPHIMURIUM, Strain/Indicator: TA98NR, Metabolic Activation: RAT, LIVER, S-9, AROCLOR 1254, Method: STANDARD PLATE): active; positive; mutagenic call [3]: active; positive; mutagenic call [4]: active; positive; mutagenic call [5]: inactive; negative; mutagenic call [6]: inactive; negative; mutagenic call [7]: active; positive; mutagenic call [8]: active; positive; mutagenic call [9]: active; positive; mutagenic call [10]: active; positive; mutagenic call (Test System: AMES SALMONELLA TYPHIMURIUM, Strain/Indicator: YG1021, Metabolic Activation: NONE, Method: STANDARD PLATE): active; positive; mutagenic call (Test System: AMES SALMONELLA TYPHIMURIUM, Strain/Indicator: YG1021, Metabolic Activation: RAT, LIVER, S-9, AROCLOR 1254, Method: STANDARD PLATE): active; positive; mutagenic call (Test System: AMES SALMONELLA TYPHIMURIUM, Strain/Indicator: YG1024, Metabolic Activation: NONE, Method: STANDARD PLATE): active; positive; mutagenic call (Test System: AMES SALMONELLA TYPHIMURIUM, Strain/Indicator: YG1024, Metabolic Activation: RAT, LIVER, S-9, AROCLOR 1254, Method: STANDARD PLATE): active; positive; mutagenic call (Test System: AMES SALMONELLA TYPHIMURIUM, Strain/Indicator: YG1041, Metabolic Activation: NONE, Method: STANDARD PLATE): active; positive; mutagenic call (Test System: AMES SALMONELLA TYPHIMURIUM, Strain/Indicator: YG1041, Metabolic Activation: RAT, LIVER, S-9, AROCLOR 1254, Method: STANDARD PLATE): active; positive

Question: Which mutagenic call (Test System: AMES SALMONELLA TYPHIMURIUM, Strain/Indicator: TA98, Metabolic Activation: RAT, LIVER, MICROSOMES, PHENOBARBITAL, Method: STANDARD PLATE) does the source give for O=C1C=CCO1 here?
Answer: inactive; negative

Question: And the mutagenic call (Test System: AMES SALMONELLA TYPHIMURIUM, Strain/Indicator: TA100, Metabolic Activation: RAT, LIVER, MICROSOMES, PHENOBARBITAL, Method: STANDARD PLATE)?
Answer: inactive; negative

Question: For CC(C)(C)NC[C@@H](O)COc1ccccc1C1CCCC1, which mutagenic call [1] is on record?
Answer: active; positive

Question: And the mutagenic call [2]?
Answer: active; positive

Question: For BrCc1c2ccccc2cc2c1ccc1ccccc12, which mutagenic call [1] is on record?
Answer: active; positive

Question: And the mutagenic call [3]?
Answer: active; positive

Question: And the mutagenic call (Test System: CHINESE HAMSTER V-79, Strain/Indicator: V-79/8-AZAGUANINE, Metabolic Activation: NONE, Method: STANDARD PLATE)?
Answer: active; positive

Question: And the mutagenic call (Test System: E. COLI, Strain/Indicator: WP2, Metabolic Activation: NONE, Method: FLUCTUATION)?
Answer: active; positive

Question: What about the mutagenic call (Test System: E. COLI, Strain/Indicator: WP2 UVRA, Metabolic Activation: NONE, Method: FLUCTUATION) of the same molecule?
Answer: active; positive

Question: What about the mutagenic call (Test System: UDS HUMAN CELLS, Strain/Indicator: THY INCORP (NON-S-PHASE), Metabolic Activation: NONE, Method: LIQUID SCINTILLATION COUNTING) of the same molecule?
Answer: active; positive

Question: And the mutagenic call (Test System: UDS HUMAN FIBROBLASTS, Strain/Indicator: THY INCORP (NON-S-PHASE), Metabolic Activation: NONE, Method: AUTORADIOGRAPHY)?
Answer: active; positive

Question: And the mutagenic call (Test System: UDS RODENT CELLS, Strain/Indicator: THY INCORP (NON-S-PHASE), Metabolic Activation: NONE, Method: LIQUID SCINTILLATION COUNTING)?
Answer: active; positive

Question: O=C(O)[C@H](O)[C@@H](O)C(=O)O was tested. Which mutagenic call (End Point: IN VIVO MICRONUCLEUS, Test System: BONE MARROW POLYCHROMATIC ERYTHROCYTES, Species: MOUSE, Strain/Sex: DDY/MALE, Route: IP) did it give?
Answer: inactive; negative; authors report chemical name as sodium d-tartrate with cas number of s

Question: What about the mutagenic call (Test System: AMES SALMONELLA TYPHIMURIUM, Strain/Indicator: TA97, Metabolic Activation: NONE, Method: PREINCUBATION) of the same molecule?
Answer: inactive; negative

Question: And the mutagenic call (Test System: AMES SALMONELLA TYPHIMURIUM, Strain/Indicator: TA97, Metabolic Activation: RAT, LIVER, S-9, AROCLOR 1254, Method: PREINCUBATION)?
Answer: inactive; negative

Question: And the mutagenic call (Test System: AMES SALMONELLA TYPHIMURIUM, Strain/Indicator: TA98, Metabolic Activation: NONE, Method: PREINCUBATION)?
Answer: inactive; negative

Question: What about the mutagenic call [1] of the same molecule?
Answer: inactive; negative

Question: What about the mutagenic call (Test System: AMES SALMONELLA TYPHIMURIUM, Strain/Indicator: TA98, Metabolic Activation: RAT LIVER S-9, PHENOBARBITAL AND BETA-NAPHTHOFLAVONE, Method: PREINCUBATION) of the same molecule?
Answer: inactive; negative

Question: What about the mutagenic call [2] of the same molecule?
Answer: inactive; negative

Question: What about the mutagenic call [11] of the same molecule?
Answer: inactive; negative

Question: And the mutagenic call [3]?
Answer: inactive; negative

Question: What about the mutagenic call (Test System: AMES SALMONELLA TYPHIMURIUM, Strain/Indicator: TA100, Metabolic Activation: RAT LIVER S-9, PHENOBARBITAL AND BETA-NAPHTHOFLAVONE, Method: PREINCUBATION) of the same molecule?
Answer: inactive; negative

Question: And the mutagenic call [4]?
Answer: inactive; negative

Question: And the mutagenic call (Test System: AMES SALMONELLA TYPHIMURIUM, Strain/Indicator: TA102, Metabolic Activation: NONE, Method: PREINCUBATION)?
Answer: inactive; negative

Question: And the mutagenic call (Test System: AMES SALMONELLA TYPHIMURIUM, Strain/Indicator: TA102, Metabolic Activation: RAT, LIVER, S-9, AROCLOR 1254, Method: PREINCUBATION)?
Answer: inactive; negative

Question: And the mutagenic call (Test System: AMES SALMONELLA TYPHIMURIUM, Strain/Indicator: TA1535, Metabolic Activation: NONE, Method: PREINCUBATION)?
Answer: inactive; negative

Question: And the mutagenic call [5]?
Answer: inactive; negative

Question: And the mutagenic call (Test System: AMES SALMONELLA TYPHIMURIUM, Strain/Indicator: TA1535, Metabolic Activation: RAT LIVER S-9, PHENOBARBITAL AND BETA-NAPHTHOFLAVONE, Method: PREINCUBATION)?
Answer: inactive; negative

Question: What about the mutagenic call [6] of the same molecule?
Answer: inactive; negative

Question: And the mutagenic call (Test System: AMES SALMONELLA TYPHIMURIUM, Strain/Indicator: TA1537, Metabolic Activation: NONE, Method: PREINCUBATION)?
Answer: inactive; negative

Question: What about the mutagenic call [7] of the same molecule?
Answer: inactive; negative

Question: What about the mutagenic call (Test System: AMES SALMONELLA TYPHIMURIUM, Strain/Indicator: TA1537, Metabolic Activation: RAT LIVER S-9, PHENOBARBITAL AND BETA-NAPHTHOFLAVONE, Method: PREINCUBATION) of the same molecule?
Answer: inactive; negative

Question: What about the mutagenic call [8] of the same molecule?
Answer: inactive; negative

Question: And the mutagenic call [9]?
Answer: inactive; negative

Question: And the mutagenic call [10]?
Answer: inactive; negative

Question: What about the mutagenic call (Test System: E. COLI, Strain/Indicator: WP2, Metabolic Activation: NONE, Method: STANDARD PLATE) of the same molecule?
Answer: inactive; negative

Question: And the mutagenic call (Test System: E. COLI, Strain/Indicator: WP2, Metabolic Activation: RAT, LIVER, S-9, AROCLOR 1254, Method: STANDARD PLATE)?
Answer: inactive; negative

Question: What about the mutagenic call (Test System: E.COLI, Strain/Indicator: WP2UVRA/PKM101, Metabolic Activation: NONE, Method: PREINCUBATION) of the same molecule?
Answer: inactive; negative

Question: What about the mutagenic call (Test System: E.COLI, Strain/Indicator: WP2UVRA/PKM101, Metabolic Activation: RAT LIVER S-9, PHENOBARBITAL AND BETA-NAPHTHOFLAVONE, Method: PREINCUBATION) of the same molecule?
Answer: inactive; negative

Question: How did the mutagenic call [11] turn out when CC/C=C/C=C/C=C/C=C/C=C/OCC(O)c1ccccc1 (configuration not stated) was run?
Answer: active; positive
